The source of these data is US20230233696A1, “TRIANTENNARY N-ACETYLGALACTOSAMINE MODIFIED HYDROXYL POLYAMIDOAMINE DENDRIMERS AND METHODS OF USE THEREOF” (Ashvattha Therapeutics, Inc., priority 2019, published 2023).

For one series, the target named is CSF1R (Homo sapiens, UniProt P07333). Nature of the series: binding affinity towards CSF1R.
A further series deals with NASH mice. Put plainly: in vivo efficacy in STAM mouse model of non-alcoholic steatohepatitis. On the set-up: species or system C57BL/6 mice. How it is done:
Pathogen-free 14 day-pregnant C57BL/6 mice were obtained from Japan SLC, Inc.(Japan); NASH was established in male mice by a single subcutaneous injection of 200 μg streptozotocin (STZ, Sigma, USA) 2 days after birth and feeding with a high fat diet (CLEA Japan Inc., Japan) ad libitum after 4 weeks of age (day 28 ± 2). NASH mice were randomized into 8 groups of 8 mice and 2 groups of 4 mice at 6 weeks of age (day 42 ± 2) the day before the start of treatment based on their body weight. Littermate control mice without STZ priming (n=8) were fed with normal diet ad libitum and set up for control purpose (see below for details on grouping). […] Samples would not be collected from euthanized animals. Individual body weight was measured daily during the treatment period. […] Four NASH mice were intraperitoneally administered vehicle supplemented with D-Cy5 at a dose of 50 mg/kg single shot at 6 weeks of age; • Group 11 (D-Cy5-9 wks): Four NASH mice were intraperitoneally administered vehicle supplemented with D-Cy5 at a dose of 50 mg/kg single shot at 9 weeks of age. Mice in group 10 and 11 were sacrificed at 6 and 9 weeks of age 48 hours after the administration. Mice in group 1 - 9 were sacrificed at 9 weeks of age for the following assay, group 10 and 11 were sacrificed at 6 and 9 weeks of age for the following assays. Individual liver weight were measured and liver-to-body weight ratio were calculated. Non-fasting serum ALT levels were quantified by FUJI DRI CHEM (Fujifilm, Japan). Liver triglyceride levels were quantified by Triglyceride E-test kit (FUJIFUILM Wako Pure Chemical Corporation, Japan). HE staining and estimation of NAFLD Activity score was carried out using routine methods. Sirius-red staining and estimation of the percentage of fibrosis area was also calculated. After completion of the in-life portion of the study, the following samples were collected for further analyses or shipping. […] Dissect the animal and collect the tissue samples (right and left kidneys, liver) in sequential order. Sample thickness was less than approximately 5 mm to ensure proper fixation, with a flat surface across the area of interest. Put the samples into 4% NBF for fixation immediately. Fix the samples in 4% NBF overnight at room temperature.

Series [1] can be described thus: water solubility of dendrimer conjugates.
The nature of series [2]: in vitro drug release under plasma (pH7.4, PBS) and intracellular conditions (pH5.5, esterase). The series is classed as in vitro ADME. As to conditions: intracellular conditions (pH5.5, esterase), 18 days. How it is done:
The drug release profile of both the conjugates was evaluated under plasma (pH7.4, PBS) and intracellular conditions (pH5.5, esterase).

The target of series [3] is T1, human angiotensin II AT1 receptor (Homo sapiens, UniProt P30556).
T1 sequence (P30556 1-359): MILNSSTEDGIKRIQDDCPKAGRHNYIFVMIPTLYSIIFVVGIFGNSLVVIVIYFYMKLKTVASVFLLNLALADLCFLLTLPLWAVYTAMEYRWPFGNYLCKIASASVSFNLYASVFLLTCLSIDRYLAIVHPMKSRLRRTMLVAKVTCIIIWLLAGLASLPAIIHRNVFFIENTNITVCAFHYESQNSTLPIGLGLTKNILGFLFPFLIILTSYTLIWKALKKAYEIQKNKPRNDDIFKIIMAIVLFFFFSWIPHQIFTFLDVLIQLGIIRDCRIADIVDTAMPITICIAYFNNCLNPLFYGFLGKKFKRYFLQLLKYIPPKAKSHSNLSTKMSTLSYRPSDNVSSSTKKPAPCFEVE
Put plainly: human angiotensin II AT1 receptor (antagonist radioligand) binding assay. The note with it: [125I][Sar1-Ile8] angiotensin-II radioligand, cell membrane homogenates. How it is done:
Cell membrane homogenates (8 µg protein) are incubated for 120 min at 37° C. with 0.05 nM [125I][Sar1-Ile8] angiotensin-II in the absence or presence of the test compounds in a buffer containing 50 mM Tris-HCl (pH 7.4), 5 mM MgCl2, 1 mM EDTA and 0.1% BSA. Nonspecific binding is determined in the presence of 10 µM angiotensin II. Following incubation, the samples solution are filtered rapidly under vacuum through glass fiber filters (GF/B, Packard) presoaked with 0.3% PEI and rinsed several times with ice-cold 50 mM Tris-HCl using a 96-sample cell harvester (Unifilter, Packard). The filters are dried then counted for radioactivity in a scintillation counter (Topcount, Packard) using a scintillation cocktail (Microscint 0, Packard).
The results are expressed as a percent inhibition of the control radioligand specific binding. Saralasin is used as the standard reference compound, which is tested in each experiment at several concentrations to obtain a competition curve from which its IC50 is calculated.

[4] abbreviates: NASH mice, significantly compared to free OCA and vehicle control (p < 0.05, n=8).

Chain of CSF1R (P07333 20-972, species assumed): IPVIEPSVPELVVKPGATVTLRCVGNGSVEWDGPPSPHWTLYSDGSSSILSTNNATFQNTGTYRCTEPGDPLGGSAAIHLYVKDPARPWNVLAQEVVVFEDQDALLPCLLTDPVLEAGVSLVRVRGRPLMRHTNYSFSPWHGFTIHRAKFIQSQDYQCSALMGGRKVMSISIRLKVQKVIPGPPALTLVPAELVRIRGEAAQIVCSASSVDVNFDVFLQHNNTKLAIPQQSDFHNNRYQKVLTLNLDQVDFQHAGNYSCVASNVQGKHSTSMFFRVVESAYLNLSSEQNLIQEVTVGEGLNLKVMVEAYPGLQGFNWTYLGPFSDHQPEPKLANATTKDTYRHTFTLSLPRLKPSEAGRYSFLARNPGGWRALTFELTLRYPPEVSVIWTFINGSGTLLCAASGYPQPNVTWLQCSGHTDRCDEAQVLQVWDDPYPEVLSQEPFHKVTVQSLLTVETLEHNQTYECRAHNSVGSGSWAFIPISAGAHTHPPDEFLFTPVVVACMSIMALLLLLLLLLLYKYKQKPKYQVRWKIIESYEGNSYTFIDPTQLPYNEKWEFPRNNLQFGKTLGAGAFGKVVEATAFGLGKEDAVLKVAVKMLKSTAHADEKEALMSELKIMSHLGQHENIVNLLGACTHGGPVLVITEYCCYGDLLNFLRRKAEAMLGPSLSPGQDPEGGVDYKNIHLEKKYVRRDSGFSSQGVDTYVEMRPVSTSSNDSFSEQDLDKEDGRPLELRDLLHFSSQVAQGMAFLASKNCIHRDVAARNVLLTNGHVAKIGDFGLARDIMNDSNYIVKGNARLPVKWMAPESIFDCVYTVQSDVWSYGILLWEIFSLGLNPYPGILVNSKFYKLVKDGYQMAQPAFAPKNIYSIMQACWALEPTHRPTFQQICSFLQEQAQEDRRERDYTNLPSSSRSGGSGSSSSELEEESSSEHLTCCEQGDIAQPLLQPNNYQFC

For `Cc1ccc(NC(=O)c2ccc(CN3CCN(CCOCCOCCOCCN=[N+]=[N-])CC3)c(C(F)(F)F)c2)cc1NC(=O)c1cccc(-c2cnn(C)c2)c1` [CSF1R-E analogue 1], the Kd (usually a measure of binding affinity in units of concentration) on CSF1R is around 13 nM.

In the case of `CCCc1nc2c(C)cc(-c3nc4ccccc4n3C)cc2n1Cc1ccc(-c2ccccc2C(=O)O)cc1` [Telmisartan, reference compound], the liver weight entry in the series with NASH mice (NASH mice at nine weeks of age, compared to vehicle-treated NASH mice) is “reduce liver weight”.

“dendrimer-GalNAc (4-5)-telmisartan amide (6-7) [D-Tel]” had a water solubility in series [1] of 60 to 70 mg/mL. The drug release entry in series [2] was “less than 10%”.

“dendrimer-GalNAc(4-5)-Obeticholic acid conjugate (6-7) [D-OCA]”: the “liver function (biochemical analysis)” value in the series on NASH mice (NASH mice) is “improved liver function”. Also, in the series with NASH mice (setting [4]), the NAFLD score result is recorded as “decreases”, the hepatocyte ballooning result is “decreases” and the liver fibrosis entry was “decreases”. Besides, the fibrosis score result in the series with NASH mice (high dose D-OCA (315 mg/kg i.p. every other day), compared to free OCA group) is listed as “improved reduction”. For the same compound, the stenosis score result in the series with NASH mice (low dose D-OCA (63 mg/kg i.p. every other day)) is “significant reduction”.

“dendrimer-triantennary GalNAc(4-5)-telmisartan (7-8) [D-TelB]” yielded a drug release in series [2] of 94%.

Compound “telmisartan-PEG3-amide azide [Telmisartan amide linker]” showed a Kd in series [3] of 74.2 nM.

“telmisartan-ester-PEG4 azide [Telmisartan ester linker]” showed a Kd in series [3] of 28.5 nM.
